Values after ≈ are worked out from the molar mass of the structure shown. Where a SMILES comes first, the peptide text is derived from it. [ ]: non-standard residue; d: D form. The star is where a group is joined. 12Ado = NCCCCCCCCCCCC(=O)O; Decanoyl = CCCCCCCCCC(=O)*; Dap = NC[C@H](N)C(=O)O
Assays:
HEK-293FT = assay: Cytotoxicity, Alamar blue; assay type: cell-based, human; conditions: 24 h incubation, read-out: IC50 HEK-293FT (50% inhibition of cells respiration)
Protocol: (§1) Cell lines used in this study included murine RAW 264.7 macrophages and human embryonic kidney HEK-293FT cells (ATCC, Biological Industries, Beit Haemek, Israel). Cells were grown in Dulbecco’s modified eagle medium (DMEM) containing […] glucose, L-glutamine, sodium bicarbonate and sodium pyruvate, supplemented with 10% fetal bovine serum and pen-strep, at 37 °C and 5% CO2.
(§2) Lipopeptides cytotoxicity was determined using fluorescent measurements of reduced resazurin. 2 × 10^4 cells were first cultured in 96-well plates over-night (final volume of 100 µl) at 37 °C and 5% CO2. Then, the medium was removed and cells were incubated for an additional 24 h with serial twofold dilutions of the lipopeptides in growth medium. Then, 10 µl of Alamar blue were added and plates were incubated for 3 h, after which fluorescence (excitation: 530 nm; emission: 590 nm) of the reduced resazurin was recorded (BioTek Instruments Synergy HT; Winooski, VT, USA).

[1] = test system: S. Typhimurium 14028ΔAcrAB; conditions: cited from earlier work
Source text: Table 2 Effect of RND pumps on growth-inhibitory activity. | column: MIC^a (µM) in LB / S. Typhimurium / Mutant

E. coli Ag100a (ΔacrAB) = conditions: cited from earlier work
Source text: Table 2 Effect of RND pumps on growth-inhibitory activity. | column: MIC^a (µM) in LB / E. coli / Mutant

[2] = test system: S. Typhimurium 14028 (wild-type); conditions: cited from earlier work
Source text: Table 2 Effect of RND pumps on growth-inhibitory activity. | column: MIC^a (µM) in LB / S. Typhimurium / Wild-Type

RAW 264.7 = assay: Cytotoxicity, Alamar blue; assay type: cell-based, murine; conditions: 24 h incubation, read-out: IC50 RAW 264.7 (50% inhibition of cells respiration)
Protocol: as §1, §2

E. coli 25922 [3] = conditions: same assessment tools; cited from earlier work
Source text: To our knowledge, the finding of an adjuvant whose activity is enhanced—rather than repressed—after efflux, is hitherto unreported. One might ask, at this point: If the K-, O and B-based analogs are efflux substrates (as implied by MIC data, Table 2), how come only C10BBc12B is positively affected by efflux?

K. pneumoniae = assay: MIC, broth microdilution; assay type: cell-based, Klebsiella pneumoniae; conditions: broth microdilution in LB, 18–24 h, 37 °C; n = 2 strains
Source text: (§3) Bacteria used in this study consisted of standard American Type Culture Collection (ATCC; Biological Industries, Beit Haemek, Israel) strains, clinically isolated (CI; Sourasky Medical Center, Tel Aviv, Israel) strains, as well as isogenic mutant strains. Gram-negative bacteria included Acinetobacter baumannii ATCC 19606; Escherichia coli ATCC 25922, 35218, CFT073, CI 14384, 16327, and the isogenic pair Ag100 (wild-type) and its efflux deficient mutant Ag100a (ΔacrAB); Klebsiella pneumoniae CI 1287, 224; Pseudomonas aeruginosa ATCC 27853, CI 1278, 8634; Salmonella enterica serovar Typhimurium ATCC 14028 (wild-type) and its isogenic efflux deficient mutant ΔacrAB. Bacteria were grown in Luria–Bertani broth (LB; 5 g/l NaCl, 5 g/l yeast extract, 10 g/l tryptone; pH = 7.0) at 37 °C with shaking. Over-night cultures were diluted 10-folds into fresh growth-medium and incubated at 37 °C with shaking until reaching mid-logarithmic phase. Then, bacterial concentrations were adjusted using O.D.600 nm measurements, and bacteria were subjected to the experimental procedures listed herein.
(§4) MIC was determined according to the broth microdilution method: antimicrobials were subjected to serial twofold dilutions in LB medium, and incubated with 5 × 10^5 CFU/ml of bacteria (final volume of 200 µl) for 18–24 h at 37 °C. Then, O.D.620 nm was measured (BioTek Instruments Synergy HT; Winooski, VT, USA), and the MIC was defined as the lowest antimicrobial concentration for which no increase in O.D.620 nm was evident, compared to the untreated control.

P. aeruginosa = assay: MIC, broth microdilution; assay type: cell-based, Pseudomonas aeruginosa; conditions: broth microdilution in LB, 18–24 h, 37 °C; n = 3 strains
Source text: as §3, §4

A. baumannii = assay: MIC, broth microdilution; assay type: cell-based, Acinetobacter baumannii; conditions: broth microdilution in LB, 18–24 h, 37 °C; n = 1 strain
Source text: as §3, §4

[4] = test system: E. coli Ag100 (wild-type); conditions: cited from earlier work
Source text: Table 2 Effect of RND pumps on growth-inhibitory activity. | column: MIC^a (µM) in LB / E. coli / Wild-Type

E. coli = assay: MIC, broth microdilution; assay type: cell-based, Escherichia coli; conditions: broth microdilution in LB, 18–24 h, 37 °C; n = 4 strains; published data in bold (not discernible)
Source text: as §3, §4

murine RBC = assay: Hemolysis; assay type: cell-based; conditions: 1% hematocrit murine RBC, 3 h, 37 °C
Protocol: Permeabilization of red blood cells (RBC) was evaluated using absorbance measurements of extracellular hemoglobin. Serial twofold dilutions of lipopeptides were incubated with 1% hematocrit of murine RBC for 3 h at 37 °C with shaking. Samples were then centrifuged at 20,000 RCF for 5 min, and absorbance of the supernatants was measured at 450 nm (BioTek Instruments Synergy HT; Winooski, VT, USA). Percent hemolysis was then calculated by (AS − AN)/(AP − AN) × 100; where AS, AN, and AP represent the absorbance of the sample, negative control (PBS) and positive control (Milli-Q water), respectively. LC50 values were extracted from trend-lines generated for linear-regions of plots correlating lipopeptide concentrations and percent hemolysis.

[5] = design: method as in PMID 20480482; conditions: cited from earlier work
[6] = test system: Gram-negative ESKAPE pathogens; assay: MIC against 10 bacterial strains of the four Gram-negative ESKAPE species; assay type: cell-based
Source text: as §3
MIC was determined according to the broth microdilution method: antimicrobials were subjected to serial twofold dilutions in LB medium, and incubated with 5 × 10^5 CFU/ml of bacteria (final volume of 200 µl) for 18–24 h at 37 °C. […]

E. coli 25922 [7] = assay: Growth / time-kill kinetics; assay type: cell-based, Escherichia coli; conditions: 10 µM C10BBc12B, 1 µg/ml erythromycin or 20 ng/ml rifampin alone
Protocol: Antimicrobials mode of action was determined according to the rate of bacterial killing. Varying concentrations of lipopeptides, antibiotics and combinations thereof were mixed in LB medium with 5 × 10^5 CFU/ml of bacteria (final volume of 1 ml) and incubated at 37 °C with shaking. At the designated time-points aliquots were serially tenfold diluted in saline, plated on LB agar, and incubated over-night at 37 °C for enumeration.

K. pneumoniae 1287 = assay: Combination with antibiotics, modified checkerboard titration; assay type: cell-based, Klebsiella pneumoniae
Protocol: as §4
(§5) Lipopeptides and antibiotics combinations were assessed using a modified version of the checkerboard titration method: Antibiotics MIC was determined in LB medium containing sub-inhibitory lipopeptide concentrations. The sensitization factor (SF)[46] was then calculated by SF = MICA/MICC, where “MICA” is the antibiotic MIC in absence of an adjuvant and “MICC “ is the antibiotic MIC in presence of an adjuvant, for a specified adjuvant concentration. Combinations were classified as synergistic when antibiotics MIC were decreased by > 4 folds. Alternatively, the fractional inhibitory concentration index (FICI) was calculated by FICI = MICC1/MICA1 + MICC2/MICA2, where “MICC1” and “MICC2” respectively specify the antibiotic and the adjuvant MIC values upon their combination, whereas “MICA1” and “MICA2” respectively specify the antibiotic and the adjuvant MIC values when tested individually. Combinations were classified as synergistic for FICI < 0.5.

A. baumannii 19606 = assay: Selective pressure, MIC evolution over 15 consecutive subcultures; conditions: in absence of C10BBc12B
Protocol: The likelihood of antimicrobial-resistance development was assessed by recording MIC changes upon consecutive rounds of antimicrobials application, as in the MIC assay. Following each round, bacteria from wells corresponding to ½ of the resulting MIC were regrown in fresh media to mid-logarithmic phase and subjected to the same procedure for 15 consecutive days[66].

E. coli 25922 [8] = assay type: cell-based, Escherichia coli; conditions: E. coli
Protocol: as §4, §5

E. coli 25922 [9] = assay: Peritonitis-sepsis infection model in neutropenic mice; assay type: in vivo; conditions: n = 10
Protocol: (§6) The study is reported in accordance with ARRIVE guidelines.
(§7) Lipopeptides potential application in monotherapy and/or combination-therapies was explored with two infection models. In the peritonitis-sepsis model, mice (n = 10 per group) were first rendered neutropenic by two intraperitoneal (I.P.) injections of 0.3 ml containing 150 mg/kg and 100 mg/kg cyclophosphamide, administered 4 days and 1 day before the experiment, respectively. […] Mice survival was recorded for up to 7 days. In a variant assay, bacteria in PBS (1.4 × 10^6) were pre-treated with 10 µM lipopeptides for 15 min, similarly administered, and mice survival was recorded for up to 3 days. In the urinary-tract infection (UTI) model, mice (N = 5 mice per group) were anesthetized by a single I.P. injection (0.2 ml) containing a mixture of ketamine (100 mg/kg) and xylazine (5 mg/kg). Following application of an analgesic 2% lidocaine gel on their penises, mice were infected intra-urethraly using a 24-gauge catheter with 1.2 × 10^8 CFU/mouse (0.05 ml) and treated with the vehicle control (S.C., 1 h post-infection), 2 mg/kg rifampin (oral gavage, immediately before anesthesia), 7.5 mg/kg q.i.d. lipopeptides (S.C., starting 1 h post-infection), or both. Mice were sacrificed 24 h post-infection, their bladder and kidneys aseptically excised, suspended in 5 ml of sterile PBS, homogenized for 3 min using a bench-top homogenizer, serially tenfold diluted in saline, plated on LB agar, and incubated over-night at 37 °C for enumeration.

UPEC CFT073 = assay: Urinary-tract infection model; assay type: in vivo, mice; conditions: 24 h post-infection; 2 mg/kg rifampin, 7.5 mg/kg q.i.d. C10BBc12B or both; n = 5
Protocol: as §6, §7

Row | SMILES | IC50 (HEK-293FT) | MIC (µM) in LB, S. Typhimurium Mutant [1] | MIC (µM) in LB, E. coli Mutant (E. coli Ag100a (ΔacrAB)) | MIC (µM) in LB, S. Typhimurium Wild-Type [2] | IC50 (RAW 264.7) | MIC K. pneumoniae (n=2) (K. pneumoniae) | MIC A. baumannii (n=1) (A. baumannii) | MIC (µM) in LB, E. coli Wild-Type [4] | MIC E. coli (n=4) (E. coli) | LC50 Erythrocytes (50% hemolysis) (murine RBC) | effect on bacterial proliferation, individual agent (E. coli 25922 [7]) | antibiotic MIC after 15 consecutive subcultures (A. baumannii 19606) | antibiotic MIC before subculturing (A. baumannii 19606) | further results
1 | CCCCCCCCCC(=O)N[C@@H](CCCCN)C(=O)N[C@@H](CCCCN)C(=O)NCCCCCCCCCCCC(=O)N[C@@H](CCCCN)C(N)=O [C10KKc12K] (Decanoyl-KK[12Ado]K-NH2) | > 50 µM | 25 µM (≈ 18.8 µg/mL) | 6.2 µM (≈ 4.67 µg/mL) | > 50 µM | > 50 µM | ≥ 50 µM | > 50 µM | > 50 µM | ≥ 50 µM | > 50 µM |  |  |  | CM depolarization (E. coli 25922 [3]): interact with the CM to the point of inducing its depolarization; MIC P. aeruginosa (n=3) (P. aeruginosa): > 50 µM
2 | CCCCCCCCCC(=O)N[C@@H](CN)C(=O)N[C@@H](CN)C(=O)NCCCCCCCCCCCC(=O)N[C@@H](CN)C(N)=O [C10PPc12P] (Decanoyl-[Dap][Dap][12Ado][Dap]-NH2) | > 50 µM |  |  |  | > 50 µM | ≥ 50 µM | > 50 µM |  | 12.5 to 25 µM | 26 µM |  |  |  | side-chain β-NH2 group pKa [5]: 6.3; MIC [6]: occasionally presented somewhat lower MIC values
3 | CC[C@H]1OC(=O)[C@H](C)[C@@H](O[C@H]2C[C@@](C)(OC)[C@@H](O)[C@H](C)O2)[C@H](C)[C@@H](O[C@@H]2O[C@H](C)C[C@H](N(C)C)[C@H]2O)[C@](C)(O)C[C@@H](C)C(=O)[C@H](C)[C@@H](O)[C@]1(C)O [Erythromycin] |  | 6.8 µM (≈ 4.99 µg/mL) | 10.9 µM (≈ 8 µg/mL) | > 50 µM |  |  |  | > 50 µM |  |  | unable to significantly alter bacterial proliferation | 8,192 µg/ml | 64 µg/mL | antibiotic inhibitory concentration in absence of adjuvant (K. pneumoniae 1287): 512 µg/mL; antibiotic inhibitory concentration in presence of C10BBc12B (K. pneumoniae 1287): 0.250 µg/mL
4 | CO[C@H]1/C=C/O[C@@]2(C)Oc3c(C)c(O)c4c(O)c(c(/C=N/N5CCN(C)CC5)c(O)c4c3C2=O)NC(=O)/C(C)=C\C=C\[C@H](C)[C@H](O)[C@@H](C)[C@@H](O)[C@@H](C)[C@H](OC(C)=O)[C@@H]1C [Rifampin, reference compound] |  | 19.4 µM (≈ 16 µg/mL) | 19.4 µM (≈ 16 µg/mL) | 19.4 µM (≈ 16 µg/mL) |  |  |  | 19.4 µM (≈ 16 µg/mL) |  |  | unable to significantly alter bacterial proliferation | 8 µg/mL | 2 µg/mL | antibiotic MIC in presence of C10BBc12B (E. coli 25922 [8]): below 1 ng/ml; survival rate, monotherapy (E. coli 25922 [9]; 1.7 × 10^6 CFU/mouse, […] C10BBc12B S.C. 1 h post-infection or 20 mg/kg rifampin oral gavage): 50%; efficacy, monotherapy, higher inoculum (E. coli 25922 [9]; 1.9 × 10^6 CFU/mouse, […] C10BBc12B S.C. or 20 mg/kg rifampin oral): virtually no efficacy; antibiotic MIC in presence of C10BBc12B (K. pneumoniae 1287): below 1 ng/ml; bladder bacterial load (UPEC CFT073): no reduction in bacterial load
